Results taken from paper PMC6213633, “Induction of ATP Release, PPIX Transport, and Cholesterol Uptake by Human Red Blood Cells Using a New Family of TSPO Ligands” (International Journal of Molecular Sciences, 2018).
Read-outs that look alike come from different tables or passages of the source.

Assays:
[1] = target: T1, TSPO2-expressing RBC membranes (Homo sapiens, UniProt Q5TGU0); experiment: (3H) PK 11195 displacement binding on RBCs; design: endogenous in cells; host or cells: human red blood cells purified from fresh blood of healthy volunteers
T1 sequence (Q5TGU0 1-170): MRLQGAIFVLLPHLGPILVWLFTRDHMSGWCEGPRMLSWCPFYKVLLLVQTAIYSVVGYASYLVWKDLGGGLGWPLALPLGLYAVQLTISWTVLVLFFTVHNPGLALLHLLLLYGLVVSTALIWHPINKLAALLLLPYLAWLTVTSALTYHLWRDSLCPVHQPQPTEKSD
Method: The affinity of the ligands for the RBC membranes was assessed by typical displacement experiments. RBCs were exposed to 10 nM (^3H) PK 11195 and increasing concentrations of non-radiolabeled TSPO ligands.
RBCs were washed twice in phosphate buffer saline (PBS) (pH 7.4). Samples were incubated in a final incubation volume of 0.3 mL, in the presence of (^3H) PK 11195 (Perkin Elmer, Courtaboeuf, France; 83.5 Ci/mmol) and increasing concentrations of unlabeled TSPO ligands, at room temperature (RT). After 30 min incubation, assays were stopped by filtration through Whatman GF/C filters. Radioactivity trapped on the filters was determined by liquid scintillation counting (Tri-Carb 2800TR, Perkin-Elmer, Courtaboeuf, France).

[2] = system: human red blood cells; design: method as in PMID 30061676; details: cited from earlier work
[3] = system: P. falciparum-infected RBCs; experiment: Sorbitol-induced hemolysis in infected RBCs; type: cell-based, human; details: 50 µM ligand
Method: Figure 4 Sorbitol-induced hemolysis is modulated by the TSPO ligands in infected red blood cells. Infected RBCs at 2 to 5 % parasitemia were washed three times in a culture medium, without serum, and resuspended at 50% hematocrit in a media containing 10 μM (A) or 50 μM (B) TSPO ligands. Hemolysis was quantified at several time-points, by absorption at 540 nm wavelength. Data are presented as mean ± SEM; N = 4. Differences between each ligand and control condition (vehicle) were considered significant when p < 0.01.
Sorbitol hemolysis assays were carried as previously described using hemoglobin release to estimate lysis time. Monoexponential functions were fitted to the data from the sorbitol-induced hemolysis (%) (Figure 4), at different times of exposure to the ligands. Half time values (t1/2) for hemolysis were then calculated as t1/2= ln (2)/k, where k is the rate coefficient of the exponential curve.

[4] = Hemolysis induced by TSPO ligands (Hb release, absorption at 405 nm); type: cell-based; details: human, Hb released, mean ± SEM, N = 4, read-out: Hemolysis induced by TSPO ligands treatment
Method: Hemolysis leads to hemoglobin (Hb) release into the extracellular milieu, where the Hb content can be quantified by monitoring light absorption, at 405 nm. Using this procedure, we previously observed that the amount of Hb was proportional to the amount of lysed RBCs. The Hb content of the samples was determined as described above. Then, the amount of lytic ATP contributing to [ATPe] was estimated from the total amount of hemolysis cells (calculated as described above) and the intracellular ATP content of the RBCs, which under the experimental conditions was 148 pmol ATP per 10^6 RBCs, as previously reported by our group.

[5] = system: human red blood cells; experiment: ATP release from RBCs (luciferase luminometry); type: cell-based; details: for induction of ATP release (comparison between ligands): 10 or 30 µM ligand, 37 °C, 10% hematocrit; for ligand-induced ATP release in presence of VDAC blocker Bcl-XLBH4: Bcl-XLBH4 10 µM; for ligand-induced ATP release in presence of pannexin-1 inhibitors: carbonexolone 10 µM or probenecid 10 µM
Method: Figure 6 TSPO ligand-induced ATP release. ATP release from human red blood cells was measured at 37 °C, 10% Hematocrit, as described in material and methods. Values are the ratio between extracellular ATP (ATPe) levels after and before the addition of TSPO ligands. […] Results are expressed as means ± SEM and considered different from basal (vehicle, unstimulated) values when * p < 0.05; ** p < 0.01 or from those incubated in the presence of Bcl-XLBH4 when ^# p < 0.05 and ^## p < 0.01; N = 7.
Extracellular ATP (ATPe) concentration was measured by quantitative luminometry using firefly luciferase, which catalyzes the oxidation of luciferin in the presence of ATP to produce light as previously described. The ATPe concentration was determined at discrete times (offline). Changes in [ATPe] over time were used to estimate ATP release from RBCs.
10 µL of RBCs at 10% hematocrit were incubated for 10 min, at 37 °C, in the presence of the ligand, or of an equal vehicle volume, with 30 µL of MKB medium. At discrete times, samples were centrifuged at 450× g for 3 min, at RT. Paired samples were taken to assess ATPe and hemolysis. The supernatants were stored at −20 °C, prior to the analysis. Then, 4.5 µL of the supernatant samples were added to 45 µL of the luminometry mix (MKB medium containing 0.01 µM luciferase, 0.2 mM luciferin, and 0.1 mg/mL of Coenzyme A) and placed in the assay chamber of the luminometer to determine the light intensity. At the end of the incubations, the time course of light emission was transformed into the ATPe concentration versus time using a calibration curve, with ATP stock solutions ranging from 1 to 50 µM. The results were expressed as ΔATPe (i.e., the ratio of [ATPe] before and after the addition of a given stimulus).
The increase in [ATPe] due to regulated ATP release was calculated by taking the experimentally-measured [ATPe] and subtracting the estimated [ATPe] due to hemolysis. Except where otherwise stated, the results of ATP release experiments reflected the ATP release from non-lytic origin.

[6] = system: healthy and P. falciparum-infected RBCs; experiment: TopFluor Cholesterol uptake by RBCs (flow cytometry); type: cell-based, human; details: 50 µM ligand; for effect on cholesterol uptake: healthy and infected RBCs
Method: Figure 5 Cholesterol uptake induced by TSPO ligands. Healthy (A) or infected red blood cells, at 2 to 5% parasitemia (B) were incubated in the presence of TopFluor Cholesterol and 50 µM of TSPO ligands. Cholesterol uptake was assessed at different time points by flow cytometry. MFI values were normalized to vehicle treated cells. Data are presented as mean ± SEM; N = 4. Differences between each ligand and control condition (vehicle) were considered significant when * p < 0.05.
Cholesterol uptake was measured using TopFluor Cholesterol and 50 µM of TSPO ligands. Cholesterol uptake was assessed at different time points by flow cytometry. Mean Fluorescent Intensity (MFI) values were normalized to vehicle treated cells.
(§1) Fluorescence measurements in all samples of the P. falciparum’s viability, ZnPPIX uptake, cholesterol uptake, and ROS accumulation assays, were performed with a FACSCanto (BD Biosciences, Rungis, France) and further analyzed with Flowjo-3 software. Infected-RBCs were distinguished from non-infected ones contained in the same culture by TOPRO-3 signaling (1/2, 500), with the negative level established with the same non-infected RBCs used for parasite culture. ZnPPIX (Ex.: 488 nm, Em.: 585/42 nm), TopFluor Cholesterol (Ex.: 495 nm, Em.: 507 nm) and DCFDA (Ex.: 488 nm, Em.: 530/30 nm) levels were measured in both the infected and non-infected RBC populations, results were normalized to the corresponding solvent for each ligand.

[7] = system: P. falciparum strain FCR3; experiment: P. falciparum growth inhibition (flow cytometry of parasitemia); type: cell-based, Plasmodium falciparum; details: 10 and 50 µM
Method: Figure 1 TSPO ligands inhibited the P. falciparum growth. Infected RBCs were diluted to 1% parasitemia, and maintained at 1–5%, by dilution, for […]. Percentages of growth-inhibition were obtained, after two parasite cycles, by the flow cytometry analysis of parasitemia, and normalized to the control condition (solvent-treated cells). Data are presented as the mean ± SEM; N = 4. Differences between the control condition and the treatment were considered significant at ** p < 0.01; *** p < 001.
P. falciparum strain FCR3 culture was performed in RPMI 1640 medium containing 10% Albumax, at 5% hematocrit, in a 5% O2, 3% CO2 atmosphere. […] Parasitemia was determined after 48 h and 96 h (after one or two complete parasite’s cycles, respectively) by flow cytometry (FACS), as previously described.
as §1, with “Infected-RBCs were distinguished from non-infected ones contained in the same culture by TOPRO-3 signaling (1/2, 500), with the negative level established with the same non-infected RBCs used for parasite culture.” left out

[8] = system: healthy and P. falciparum-infected RBCs; experiment: ZnPPIX uptake in healthy and infected RBCs (flow cytometry); type: cell-based, human; details: 20 µM ZnPPIX, 50 µM ligand
Method: Figure 2 ZnPPIX uptake in healthy and infected RBCs induced by TSPO ligands. Healthy RBC (A) and infected RBC (B) at 2 to 5% parasitemia were incubated in the presence of 20 µM ZnPPIX and 50 µM TSPO ligands, and the uptake of ZnPPIX was assessed at different time points by flow cytometry. MFI values were normalized to background levels for the control and the ligand-treated conditions. Data are presented as the mean ± SEM; N = 7. Statistical analyses were performed for each ligand and the control condition. Differences were considered significant when * p < 0.05; ** p < 0.01; *** p < 0.001.
P. falciparum cultures were incubated at 2–5% parasitemia (synchronized cultures, ring and trophozoite stages) in 200 µL of RPMI 10% Albumax containing 20 µM ZnPPIX. […] Cultures were kept at 37 °C, in the dark, for 3 to 18 h and further analyzed by FACS.
as §1, with “Infected-RBCs were distinguished from non-infected ones contained in the same culture by TOPRO-3 signaling (1/2, 500), with the negative level established with the same non-infected RBCs used for parasite culture.” left out

[9] = system: TSPO1-enriched rat heart microsomes; design: method as in doi:10.1002/slct.201701565; details: cited from earlier work
[10] = displacement of 10 nM (3H) PK 11195, mean ± SEM, N = 3, read-out: IC50, TSPO ligands' affinity for RBC membranes

Row | SMILES | non-lytic ATP efflux from RBCs [2] | t1/2 of sorbitol-induced hemolysis relative to control samples [3] | hemolysis [4] [%] | induction of ATP release (comparison between ligands) [5] | ligand-induced ATP release in presence of VDAC blocker Bcl-XLBH4 [5] | ligand-induced ATP release in presence of pannexin-1 inhibitors [5] | effect on cholesterol uptake [6] | hemolysis ([4]; red blood cells (RBCs)) [%] | IC50 [1, 10] [nM] | ZnPPIX uptake increase (effect in words) [8] | other results
1 | CN1C(=O)CN=C(c2ccc(Cl)cc2)c2cc(Cl)ccc21 [Ro5-4864, reference compound] | triggered non-lytic ATP efflux | eight-fold higher | 0.68 ± 0.16 | a bit lower | significantly inhibited | not affected | did not alter cholesterol uptake |  |  |  | IC50 [1]: 1500 ± 600 nM
2 | CN(C)C(=O)Cc1nn(-c2ccccc2)c(=O)c2c1c1ccc(Cl)cc1n2C [SSR-180,575, reference compound] |  |  |  |  |  |  | did not alter cholesterol uptake | 0.7 ± 0.08 |  |  | anti-plasmodium activity (comparison between ligands) [7]: highest anti-plasmodium activity trend
3 | CC(C)CCC[C@@H](C)[C@H]1CC[C@H]2[C@@H]3CCC4=CC(=NO)CC[C@]4(C)[C@H]3CC[C@]12C [TRO19622] | triggered non-lytic ATP efflux |  |  |  |  |  |  |  |  |  | 
4 | CCN(CC)C(=O)Cn1c(=O)n2cc(-c3ccco3)nc2c2ccccc21 [NCS1018, N,N-Diethyl-2-(2-(furan-2-yl)-5-oxomidazo[1-c]quinazolin-6(5H)-yl)acetamide] | triggered non-lytic ATP efflux | eight-fold higher |  | most efficient in inducing ATP release | significantly inhibited | not affected | did not alter cholesterol uptake | 0.72 ± 0.06 | 590 ± 70 | no significant effect | 
5 | CCCN(CCC)C(=O)Cn1c(=O)n2cc(-c3ccccc3)nc2c2ccccc21 [NCS1026, N,N-dipropyl-2-(5-oxo-2-phenylimidazo[1-c]quinazolin-6(5H)-yl)acetamide] |  | three-fold higher |  |  |  |  |  | 0.52 ± 0.06 | 280 ± 60 | no significant effect | IC50 [9]: 10 nM; inhibition of cholesterol uptake ([6]; 1 h of incubation): 40%; inhibition of cholesterol uptake ([6]; 5 h of incubation): 20%
6 | CCC(C)N(C)C(=O)c1cc2ccccc2c(-c2ccccc2Cl)n1 (stereo not drawn) [PK 11195, reference compound] |  | three-fold higher | 0.6 ± 0.06 |  |  |  |  |  |  |  | 
